The nature of data set [1]: Solubility study of losartan potassium with different solubilizers and pH modifying agent. To be noted: losartan potassium 10 mg/mL, below pH 5.5, citrate buffer 50 mM plus solubilizer. Type of data set: physicochemical. The source says: The solubility of losartan potassium below pH 5.5 was checked in the presence of different solubilizers and pH modifying agent.
For data set [2] the following is noted: descriptive term; cited from earlier work.

`CCCCc1nc(Cl)c(CO)n1Cc1ccc(-c2ccccc2-c2nnn[nH]2)cc1.[K]` [Losartan potassium, 2-butyl-4-chloro-1-[p-(o-1H-tetrazol-5-ylphenyl)benzyl]imidazole-5-methanol monopotassium salt]: the “Observations (solubility of losartan potassium)” value in data set [1] is on record as “insolubility”. In data set [2], the Solubility in alcohols entry is “soluble”; the Solubility in chloroform result is “practically insoluble”; the “Solubility in common organic solvents, such as acetonitrile and methyl ethyl ketone” value is “slightly soluble”; the Solubility in water result is on record as “freely soluble”.

The record behind these values is patent US12496291B1, “Ready-to-use non-aqueous oral solution of losartan” (Liqmeds Worldwide Limited, priority 2024, dated 2025).
